Experimental data reported in publication PMC12305662, “Fragment-Based Development of Small Molecule Inhibitors Targeting Mycobacterium tuberculosis Cholesterol Metabolism” (Journal of Medicinal Chemistry, 2025).

What was measured:
CYP121 = CYP121 (Mycobacterium tuberculosis, UniProt P9WPP7); conditions: fragment 1 mM, P450 4-6 µM; relative to DMSO (417 nm)
CYP142 = CYP142 (Mycobacterium tuberculosis, UniProt P9WPL5); conditions: fragment 1 mM, P450 4-6 µM; relative to DMSO (418.5 nm)
CYP125 = CYP125 (Mycobacterium tuberculosis, UniProt P9WPP1); format: binding; conditions: fragment 1 mM, P450 4-6 µM; Soret shift relative to DMSO (393 nm)
CYP124 = CYP124 (Mycobacterium tuberculosis, UniProt P9WPP3); conditions: fragment 1 mM, P450 4-6 µM; relative to DMSO (419 nm)
CYP143 = CYP143 (Mycobacterium tuberculosis, UniProt P9WPL3); conditions: fragment 1 mM, P450 4-6 µM; relative to DMSO (416 nm)
CYP126 = CYP126 (Mycobacterium tuberculosis, UniProt P9WPN9); conditions: fragment 1 mM, P450 4-6 µM; relative to DMSO (418 nm)
CYP144 = CYP144 (Mycobacterium tuberculosis, UniProt P9WPL1); conditions: fragment 1 mM, P450 4-6 µM; relative to DMSO (421 nm)
Chain of CYP144 (P9WPL1 whole entry, the tested form may be a part): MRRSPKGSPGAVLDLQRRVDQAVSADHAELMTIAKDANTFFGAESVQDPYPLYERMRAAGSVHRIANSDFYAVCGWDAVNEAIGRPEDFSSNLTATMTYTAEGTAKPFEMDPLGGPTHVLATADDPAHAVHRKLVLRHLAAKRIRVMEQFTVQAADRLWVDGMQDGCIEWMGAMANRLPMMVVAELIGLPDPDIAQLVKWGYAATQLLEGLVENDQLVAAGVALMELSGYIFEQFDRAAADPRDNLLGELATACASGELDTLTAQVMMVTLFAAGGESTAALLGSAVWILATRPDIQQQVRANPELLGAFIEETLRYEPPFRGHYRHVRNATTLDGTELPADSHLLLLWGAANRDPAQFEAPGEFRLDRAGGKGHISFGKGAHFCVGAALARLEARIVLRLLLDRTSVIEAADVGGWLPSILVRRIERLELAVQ

Chain of CYP142 (P9WPL5 whole entry, the tested form may be a part): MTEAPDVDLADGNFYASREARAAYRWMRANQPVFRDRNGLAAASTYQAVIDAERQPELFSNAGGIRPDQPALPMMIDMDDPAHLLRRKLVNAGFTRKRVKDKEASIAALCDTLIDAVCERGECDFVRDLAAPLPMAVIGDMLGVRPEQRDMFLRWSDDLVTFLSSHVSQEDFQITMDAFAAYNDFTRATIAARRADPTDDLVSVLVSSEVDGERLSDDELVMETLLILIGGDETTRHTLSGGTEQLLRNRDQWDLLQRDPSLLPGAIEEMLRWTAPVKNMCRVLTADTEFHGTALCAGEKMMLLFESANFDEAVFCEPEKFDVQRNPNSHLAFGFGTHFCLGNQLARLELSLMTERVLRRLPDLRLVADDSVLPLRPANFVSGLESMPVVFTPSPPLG
Chain of CYP121 (P9WPP7 whole entry, the tested form may be a part): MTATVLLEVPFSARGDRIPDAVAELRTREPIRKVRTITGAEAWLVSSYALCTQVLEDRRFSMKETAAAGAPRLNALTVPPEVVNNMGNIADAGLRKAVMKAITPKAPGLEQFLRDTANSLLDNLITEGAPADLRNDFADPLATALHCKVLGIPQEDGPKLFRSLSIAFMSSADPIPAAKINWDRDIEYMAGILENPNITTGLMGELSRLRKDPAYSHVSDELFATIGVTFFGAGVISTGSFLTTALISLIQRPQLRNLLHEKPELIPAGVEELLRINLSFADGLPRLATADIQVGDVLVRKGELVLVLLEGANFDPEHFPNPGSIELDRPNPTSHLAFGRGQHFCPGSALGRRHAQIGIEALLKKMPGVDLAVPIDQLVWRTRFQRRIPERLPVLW
Chain of CYP124 (P9WPP3 whole entry, the tested form may be a part): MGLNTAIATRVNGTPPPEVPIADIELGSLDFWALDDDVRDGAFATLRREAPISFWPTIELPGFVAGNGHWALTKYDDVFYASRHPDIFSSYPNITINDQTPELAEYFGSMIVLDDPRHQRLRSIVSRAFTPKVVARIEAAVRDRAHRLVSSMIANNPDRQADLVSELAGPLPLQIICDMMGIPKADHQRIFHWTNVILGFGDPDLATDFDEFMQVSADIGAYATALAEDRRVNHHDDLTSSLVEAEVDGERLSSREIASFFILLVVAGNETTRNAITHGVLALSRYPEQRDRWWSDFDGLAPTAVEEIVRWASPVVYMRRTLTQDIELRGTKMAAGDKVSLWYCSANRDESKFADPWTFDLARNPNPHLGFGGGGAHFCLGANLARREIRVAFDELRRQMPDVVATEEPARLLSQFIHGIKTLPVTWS
Chain of CYP126 (P9WPN9 whole entry, the tested form may be a part): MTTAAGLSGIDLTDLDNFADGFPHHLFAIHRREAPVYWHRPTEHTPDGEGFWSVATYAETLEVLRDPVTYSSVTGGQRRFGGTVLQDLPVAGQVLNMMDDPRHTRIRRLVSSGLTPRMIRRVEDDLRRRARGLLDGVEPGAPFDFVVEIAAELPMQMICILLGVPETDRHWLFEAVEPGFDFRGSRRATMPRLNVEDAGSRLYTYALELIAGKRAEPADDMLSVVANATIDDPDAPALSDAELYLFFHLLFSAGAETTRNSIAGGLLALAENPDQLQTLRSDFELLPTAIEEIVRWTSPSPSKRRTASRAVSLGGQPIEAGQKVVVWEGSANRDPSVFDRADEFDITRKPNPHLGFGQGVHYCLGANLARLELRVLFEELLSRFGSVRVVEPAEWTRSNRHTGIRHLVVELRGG
Chain of CYP125 (P9WPP1 whole entry, the tested form may be a part): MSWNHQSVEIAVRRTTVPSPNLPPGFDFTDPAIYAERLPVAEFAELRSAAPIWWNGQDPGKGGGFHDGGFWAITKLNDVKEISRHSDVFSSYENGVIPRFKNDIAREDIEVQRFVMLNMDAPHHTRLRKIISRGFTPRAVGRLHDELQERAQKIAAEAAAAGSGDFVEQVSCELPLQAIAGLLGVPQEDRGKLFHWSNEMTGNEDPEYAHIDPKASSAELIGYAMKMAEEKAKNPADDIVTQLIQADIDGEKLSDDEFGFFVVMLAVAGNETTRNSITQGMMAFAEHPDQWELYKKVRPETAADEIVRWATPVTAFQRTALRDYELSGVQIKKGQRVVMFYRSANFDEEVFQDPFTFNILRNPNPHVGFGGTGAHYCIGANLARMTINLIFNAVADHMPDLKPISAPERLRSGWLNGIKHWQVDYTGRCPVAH
Chain of CYP143 (P9WPL3 whole entry, the tested form may be a part): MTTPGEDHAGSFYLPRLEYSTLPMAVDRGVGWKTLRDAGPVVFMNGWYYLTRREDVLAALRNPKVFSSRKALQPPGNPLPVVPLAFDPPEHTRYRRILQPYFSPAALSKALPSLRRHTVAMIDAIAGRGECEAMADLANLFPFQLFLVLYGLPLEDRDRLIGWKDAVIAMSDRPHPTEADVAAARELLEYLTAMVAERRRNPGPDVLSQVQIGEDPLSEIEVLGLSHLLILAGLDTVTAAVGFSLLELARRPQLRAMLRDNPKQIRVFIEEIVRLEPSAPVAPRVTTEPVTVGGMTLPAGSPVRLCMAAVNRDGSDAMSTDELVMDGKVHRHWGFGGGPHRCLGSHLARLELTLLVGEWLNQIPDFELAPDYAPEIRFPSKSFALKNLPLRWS

Row | Structure (SMILES) | Δλmax (nm) CYP121, fragment screen (CYP121) | Δλmax (nm) CYP142, fragment screen (CYP142) | Δλmax (nm) CYP125, fragment screen (CYP125) | Δλmax (nm) CYP124, fragment screen (CYP124) | Δλmax (nm) CYP143, fragment screen (CYP143) | Δλmax (nm) CYP126, fragment screen (CYP126) | Δλmax (nm) CYP144, fragment screen (CYP144)
1 | CCc1nc(C)c[nH]1 [compound 67] | -1 nm | 0 nm | 0 nm | 0 nm | 0 nm | 0 nm | 0 nm
2 | c1ccc(-c2c[nH]cn2)cc1 [compound 68] | 0 nm | 3 nm | 0 nm | 4 nm | 2 nm | 1 nm | 0 nm
3 | OCc1ccc(Cn2cncn2)cc1 [compound 69] | 0 nm | 0 nm | 0 nm | 0 nm | 0 nm | 0 nm | 0 nm
4 | Cn1nc(C(=O)O)cc1-c1ccccc1 [compound 70] | 0 nm | 0 nm | 0 nm | 2 nm | 0.5 nm | 0 nm | 0 nm
5 | N#Cc1cccc(-n2ccnc2)c1 [compound 71] | 0 nm | 3 nm | 0 nm | 1 nm | 2.5 nm | 0 nm | 0 nm
6 | N#Cc1ncccc1F [compound 72] | 0 nm | 0 nm | 0 nm | 0 nm | 0 nm | 0 nm | 0 nm
7 | Nc1ccc(Cl)nn1 [compound 73] | 0 nm | 0 nm | 0 nm | 0 nm | 0 nm | 0 nm | 0 nm
8 | O=C(O)c1cccc(-c2cccnc2)c1 [compound 74] | 0 nm | 0 nm | 0 nm | 0 nm | 1 nm | 0 nm | 0 nm
9 | C#Cc1cccnc1 [compound 75] | 0 nm | 0 nm | 0 nm | 0 nm | 0 nm | 0 nm | 0 nm
10 | Brc1c[nH]cn1 [compound 77] | -1 nm | 3 nm | 0 nm | 0 nm | 0.5 nm | 0 nm | 0 nm
11 | O=S(=O)(O)c1ccccn1 [compound 78] | 0 nm | 0 nm | 0 nm | 0 nm | 1 nm | 0 nm | 0 nm
12 | O=C(O)[C@@H]1Cc2ccccc2CN1 [compound 79] | 1 nm | 0 nm | -2 nm | 0 nm | 0 nm | 0 nm | 0 nm
13 | Cc1ccc(S(N)(=O)=O)nc1 [compound 80] | 0 nm | 0 nm | 0 nm | 0 nm | 0 nm | 0 nm | 0 nm
